Results published in PubChem BioAssay AID1259411 (Chemical Carcinogenesis Research Information System (CCRIS), 2018).
Calls of active or inactive are those of the source. No rule for the calls is given here.

Tested on: rodent carcinogenicity bioassays, tumor incidence
Assay: CCRIS carcinogenicity studies
How it was run: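 Archive of carcinogenicity, mutagenicity, tumor promotion and tumor inhibition results drawn from journals, NCI reports and other sources, expert-reviewed; covers 1985-2011 and is no longer updated.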

In the case of `Nc1nc(N)nc(N)n1`, the carcinogen call (Species: MOUSE, Strain/Sex: B6C3F1/FEMALE, Route: ORAL, Dose: 0, 2250, 4500 PPM IN DIET FOR 103 WK, Dose: 0, 2250, 4500 PPM IN DIET FOR 103 WK) is reported as “inactive; negative”, the carcinogen call (Species: MOUSE, Strain/Sex: B6C3F1/MALE, Route: ORAL, Dose: 0, 2250, 4500 PPM IN DIET FOR 103 WK, Dose: 0, 2250, 4500 PPM IN DIET FOR 103 WK) is reported as “inactive; negative” and the carcinogen call (Species: RAT, Strain/Sex: F344/FEMALE, Route: ORAL, Dose: 0, 4500, 9000 PPM IN DIET FOR 103 WK, Dose: 0, 4500, 9000 PPM IN DIET FOR 103 WK) is reported as “inactive; negative”. The carcinogen call (Species: RAT, Strain/Sex: F344/MALE, Route: ORAL, Dose: 0, 0.3, 1, 3% IN DIET FOR 36 WK (STUDY DURATION: 40 WK), Dose: 0, 0.3, 1, 3% IN DIET FOR 36 WK (STUDY DURATION: 40 WK), Tumor Site: Type of Lesion: BLADDER: PAPILLOMA, CARCINOMA) was “active; positive”, the carcinogen call (Species: RAT, Strain/Sex: F344/MALE, Route: ORAL, Dose: 0, 1, 3% IN DIET CONTAINING 5% SODIUM CHLORIDE FOR 36 WK (STUDY DURATION: 40 WK), Dose: 0, 1, 3% IN DIET CONTAINING 5% SODIUM CHLORIDE FOR 36 WK (STUDY DURATION: 40 WK), Tumor Site: Type of Lesion: URAINARY BLADDER: PAPILLOMA, CARCINOMA) was “active; positive” and the carcinogen call (Species: RAT, Strain/Sex: F344/MALE, Route: ORAL, Dose: 0, 1, 3% IN DIET CONTAINING 10% SODIUM CHLORIDE FOR 36 WK (STUDY DURATION: 40 WK), Dose: 0, 1, 3% IN DIET CONTAINING 10% SODIUM CHLORIDE FOR 36 WK (STUDY DURATION: 40 WK)) was “inactive; negative”. For the same molecule, the carcinogen call (Species: RAT, Strain/Sex: F344/MALE, Route: ORAL, Dose: 0, 1, 3% IN DIET FOR 36 WK (STUDY DURATION: 40 WK), Dose: 0, 1, 3% IN DIET FOR 36 WK (STUDY DURATION: 40 WK), Tumor Site: Type of Lesion: URINARY BLADDER: PAPILLOMA, CARCINOMA) was “active; positive” and the carcinogen call (Species: RAT, Strain/Sex: F344/MALE, Route: ORAL, Dose: 0, 2250, 4500 PPM IN DIET FOR 103 WK, Dose: 0, 2250, 4500 PPM IN DIET FOR 103 WK, Tumor Site: Type of Lesion: URINARY BLADDER: TRANSITIONAL CELL PAPILLOMA OR CARCINOMA) was “active; positive”.
For `Cn1c(NO)nc2ncc(-c3ccccc3)cc21`, the carcinogen call (Species: RAT, Strain/Sex: ACI/SEG/MALE, Route: INTRAPERITONEAL, Dose: 0, 50 UMOL/KG BW 2X/WK FOR 10 WK BEGINNING AT 3 D OF AGE (STUDY DURATION: 68 WK)) was “inactive; negative”.
`CN1CSC(=S)N(C)C1` was tested, and the carcinogen call (Species: Mouse, Strain/Sex: B6C3F1/Female (50/Group), Route: Oral, Dose: 0, 6, 22, 93 mg/kg in diet for 78 wk, study duration 78 wk, Dose: 0, 6, 22, 93 mg/kg in diet for 78 wk, study duration 78 wk) was “inactive; negative”, the carcinogen call (Species: Mouse, Strain/Sex: B6C3F1/Male (50/Group), Route: Oral, Dose: 0, 4, 16, 68 mg/kg in diet for 78 wk, study duration 78 wk, Dose: 0, 4, 16, 68 mg/kg in diet for 78 wk, study duration 78 wk) was “inactive; negative” and the carcinogen call (Species: Rat, Strain/Sex: Wistar/Female (50/Group), Route: Oral, Dose: 0, 0.35, 1.37, 5.66 mg/kg in diet for 2 yr, study duration 2 yr) was “inactive; negative”. The carcinogen call (Species: Rat, Strain/Sex: Wistar/Male (50/Group), Route: Oral, Dose: 0, 0.27, 1.08, 4.43 mg/kg in diet for 2 yr, study duration 2 yr) was “inactive; negative”.
For `ClC1=C(Cl)[C@]2(Cl)[C@H]3[C@H]([C@@H]4C=C[C@H]3C4)[C@@]1(Cl)C2(Cl)Cl`, the carcinogen call (Species: MOUSE, Strain/Sex: B6C3F1/FEMALE, Route: ORAL, Dose: 0, 3, 6 PPM IN DIET FOR 80 WK (STUDY DURATION: 112-113 WK), Dose: 0, 3, 6 PPM IN DIET FOR 80 WK (STUDY DURATION: 112-113 WK)) was “inactive; negative”, the carcinogen call (Species: MOUSE, Strain/Sex: B6C3F1/MALE, Route: ORAL, Dose: 0, 4, 8 PPM IN DIET FOR 74 WK (STUDY DURATION: 111-112 WK), Dose: 0, 4, 8 PPM IN DIET FOR 74 WK (STUDY DURATION: 111-112 WK), Tumor Site: Type of Lesion: LIVER: HEPATOCELLULAR CARCINOMA) was “active; positive” and the carcinogen call (Species: RAT, Strain/Sex: OSBORNE-MENDEL/FEMALE, Route: ORAL, Dose: 0, 30, 60 PPM IN DIET FOR 80 WK (STUDY DURATION: 112-113 WK), Dose: 0, 30, 60 PPM IN DIET FOR 80 WK (STUDY DURATION: 112-113 WK), Tumor Site: Type of Lesion: THYROID GLAND: FOLLICULAR CELL ADENOMA OR CARCINOMA, ADRENAL GLAND: CORTICAL ADENOMA) was “equivocal”. For the same molecule, the carcinogen call (Species: RAT, Strain/Sex: OSBORNE-MENDEL/MALE, Route: ORAL, Dose: 0, 30, 60 PPM IN DIET FOR 74 WK (STUDY DURATION: 111-112 WK), Dose: 0, 30, 60 PPM IN DIET FOR 74 WK (STUDY DURATION: 111-112 WK), Tumor Site: Type of Lesion: THYROID GLAND: FOLLICULAR CELL ADENOMA OR CARCINOMA) was “equivocal”.
For `CC(=O)O[C@]1(C(C)=O)CC[C@H]2[C@@H]3C[C@H](C)C4=CC(=O)CC[C@]4(C)[C@H]3CC[C@@]21C`, the carcinogen call (Species: DOG, Route: INTRAMUSCULAR, Tumor Site: Type of Lesion: MAMMARY GLAND) was “active; positive” and the carcinogen call (Species: MONKEY, Strain/Sex: CYNOMOLGUS/FEMALE, Route: ORAL, Dose: 0, 2.5 MG/WOMAN/D HUMAN DOSE EQUIVALENT IN DIET FOR 36 MONTHS BEGINNING 3 MONTHS POST BILATERAL OVARIECTOMY (STUDY DURAT) was “inactive; negative”.
For `c1ccc2nc3c(ccc4ccccc43)cc2c1`, the carcinogen call (Species: MOUSE, Strain/Sex: SWISS/FEMALE, Route: INTRAPERITONEAL, Dose: 0, 1.05 UMOL GIVEN AS 150 NMOL IN 5 µL DMSO WITHIN 24 HR OF BIRTH, 300 NMOL IN 10 µL DMSO ON D 8 OF LIFE, AND 600 NMOL I, Tumor Site: Type of Lesion: LUNG: ADENOMA) was “active; positive”, the carcinogen call (Species: MOUSE, Strain/Sex: SWISS/MALE, Route: INTRAPERITONEAL, Dose: 0, 1.05 UMOL GIVEN AS 150 NMOL IN 5 µL DMSO WITHIN 24 HR OF BIRTH, 300 NMOL IN 10 µL DMSO ON D 8 OF LIFE, AND 600 NMOL I, Tumor Site: Type of Lesion: LUNG: ADENOMA, LIVER: NEOPLASTIC NODULE) was “active; positive” and the carcinogen call (Species: RAT, Strain/Sex: OSBORNE-MENDEL/FEMALE, Route: LUNG IMPLANT, Dose: 0, 0.1, 0.3, 1.0 MG IN BEESWAX/TRICAPRYLIN (STUDY DURATION: LIFETIME), Dose: 0, 0.1, 0.3, 1.0 MG IN BEESWAX/TRICAPRYLIN (STUDY DURATION: LIFETIME)) was “inactive; negative”.
In the case of `C/C(=C(\CCOC(=O)c1ccccc1)SC(=O)c1ccccc1)N(C=O)Cc1cnc(C)nc1N`, the carcinogen call (Species: RAT, Strain/Sex: SPRAGUE-DAWLEY/FEMALE, Route: ORAL, Dose: 0, 1000, 10000 PPM IN DIET FOR DURATION OF STUDY (STUDY DURATION: 105 WK), Dose: 0, 1000, 10000 PPM IN DIET FOR DURATION OF STUDY (STUDY DURATION: 105 WK)) is reported as “inactive; negative” and the carcinogen call (Species: RAT, Strain/Sex: SPRAGUE-DAWLEY/MALE, Route: ORAL, Dose: 0, 1000, 10000 PPM IN DIET FOR DURATION OF STUDY (STUDY DURATION: 105 WK), Dose: 0, 1000, 10000 PPM IN DIET FOR DURATION OF STUDY (STUDY DURATION: 105 WK)) is reported as “inactive; negative”.
In the case of `O=C(O)C(Cl)Br` (stereo not drawn), the carcinogen call (Species: Mouse, Strain/Sex: B6C3F1 / Female (50/Group), Route: Oral, Dose: 0, 250, 500, 1,000 mg/l in drinking water for 105 wk, Dose: 0, 250, 500, 1,000 mg/l in drinking water for 105 wk, Tumor Site: Type of Lesion: Liver: hepatocellular neoplasms) is reported as “active; positive. authors describe as clear evidence”, the carcinogen call (Species: Mouse, Strain/Sex: B6C3F1 / Male (50/Group), Route: Oral, Dose: 0, 250, 500, 1,000 mg/l in drinking water for 105 wk, Dose: 0, 250, 500, 1,000 mg/l in drinking water for 105 wk, Tumor Site: Type of Lesion: Liver: hepatocellular neoplasms and hepatoblastoma) is reported as “active; positive. authors describe as clear evidence” and the carcinogen call (Species: Rat, Strain/Sex: F344/N / Female (50/Group), Route: Oral, Dose: 0, 250, 500, 1,000 mg/l in drinking water for 105 wk, Dose: 0, 250, 500, 1,000 mg/l in drinking water for 105 wk, Tumor Site: Type of Lesion: Large Intestine: adenoma, Mammary Gland: multiple fibroadenomas, Pancreatic Islet: adenoma (may have been related), Tumor Site: Type of Lesion: Large Intestine: adenoma, Mammary Gland: multiple fibroadenomas, Pancreatic Islet: adenoma (may have been related)) is reported as “active; positive (some of the p values do not reach significance.) authors describe as c”. For the same molecule, the carcinogen call (Species: Rat, Strain/Sex: F344/N / Male (50/Group), Route: Oral, Dose: 0, 250, 500, 1,000 mg/l in drinking water for 105 wk, Dose: 0, 250, 500, 1,000 mg/l in drinking water for 105 wk, Tumor Site: Type of Lesion: Mesothelium: malignant mesothelioma, Large Intestine: adenoma, Pancreatic Islet: adenoma (may have been related), Tumor Site: Type of Lesion: Mesothelium: malignant mesothelioma, Large Intestine: adenoma, Pancreatic Islet: adenoma (may have been related)) was “active; positive. authors describe as clear evidence”.
